Data taken from patent US20170029451A1, “BRANCHED CHAIN ACYCLIC NUCLEOSIDE PHOSPHONATE ESTERS AND METHODS OF SYNTHESIS AND USES THEREOF” (CHIMERIX, INC., priority 2013, published 2017).
Read-outs that look alike come from different tables or passages of the source.

Columns and labels:
[1] = Cytotoxicity in 2.2.15 cells; format: cell-based; settings: human, cell line 2.2.15 (HBV row)
[2] = tested on: Influenza virus A/CA/10/2009; test: microbe, parasite or virus in culture; format: cell-based; settings: unidentified influenza virus, MDCK, read-out: A/CA/10/2009 (EC50, μM)
[3] = tested on: HCMV UL54 resistant mutant GDG^RP53; test: microbe, parasite or virus in culture; format: cell-based, Human Cytomegalovirus (HCMV); settings: Human betaherpesvirus 5, Fibroblast
HCV = HCV antiviral activity in Huh cells; format: cell-based; settings: Hepatitis C virus, cell line Huh
[4] = Cytotoxicity (CC50) in MRC-5 cells; format: cell-based; settings: human, cell line MRC5 (HCMV row)
Method: Costar 96-well tissue culture plates were seeded with 20,000 MRC-5 cells (ATCC)/well in EMEM (ATCC, Cat 30-2003) containing 2% Hyclone Standard Fetal Bovine Serum (FBS, Cat 5H30088.03) and 1% Hyclone Penicillin and Streptomycin (Cat SV30010). Outer wells were not used to minimize the edge-effect produced by extended incubations. Serial dilutions of test compounds were added to the cells and plates were incubated for 7 days at 37° C. in 5% CO2. After 7 days of incubation 40 μL of Cell Titer 96® Aqueous MTS Reagent (Promega, G111) was added as directed by manufacturer to the 200 iut media in each well and incubated at 37° C. until the untreated-cell controls developed an 490 nm absorbance between 1.1 and 1.8. The final absorbance readings were read using a BioTek Synergy 2, and Gen 5 software (BioTek Instruments, Inc.) was used to calculate the concentration which inhibited MRC-5 cells by 50% (CC50).

MCMV = MCMV antiviral activity in MEF cells; format: cell-based; settings: Virus MCMV, cell line MEF
[5] = CellTiter-Glo cytotoxicity assay in Akata cells; settings: human
HCMV (Strain AD169) = test: Plaque reduction assay, HCMV AD169 in human foreskin fibroblast cells; format: cell-based, Human Cytomegalovirus (HCMV); settings: for EC50: Human betaherpesvirus 5, AD169, Fibroblast
in vitro [6] = settings: dog
[7] = tested on: Influenza virus B/FL/4/2006; test: microbe, parasite or virus in culture; format: cell-based; settings: unidentified influenza virus, MDCK, read-out: B/FL/4/2006 (EC50, μM)
[8] = tested on: Human Cytomegalovirus (HCMV); test: HCMV EC50 in MRC-5 cells (qPCR of intracellular CMV DNA); format: cell-based
Method: Costar 96-well tissue culture plates were seeded with 20,000 MRC-5 cells/well in EMEM containing 2% Hyclone Standard Fetal Bovine Serum and 1% Hyclone Penicillin and Streptomycin. Outer wells were not used to minimize the edge-effect produced by extended incubations. Cells were inoculated with HCMV at an MOI of 0.01. Serial dilutions of test compounds were added to the cells and plates were incubated for 7 days at 37° C. in 5% CO2. […] Culture medium was gently removed from infected cells after the 7-day incubation. The cells were rinsed twice with ice-cold PBS, and then freeze/thawed once. Each well was incubated with 200 μL lysis buffer for 2 hours at 55° C. Lysis buffer included 0.5 mg/mL protease K, 50 mM KCl, 10 mM Tris-Cl pH 8.0, 2.5 mM MgCl2, 0.45% IGEPAL, and 0.45% Tween-20 dissolved in DEPC-treated water. Intracellular CMV DNA was measured by quantitative polymerase chain reaction (qPCR) using forward and reverse HCMV PCR primers, and a FAM-labeled probe. Absolute quantitation of viral copy number was performed using a standard curve with dilutions of a HCMV DNA amplicon containing sequences homologous to the amplified fragment. The following qPCR amplification conditions were used: 1 cycle at 95° C. for 10 minutes, followed by 45 cycles of 95° C. for 15 seconds and 60° C. for 60 seconds. The qPCR reactions were performed using an Applied Biosystems 7500 real Time PCR System. Gen 5 software (BioTek Instruments, Inc.) was used to calculate the concentration which inhibited the viral DNA levels of HCMV-infected MRC-5 cells by 50% (EC50).

Ebola = test: microbe, parasite or virus in culture; format: cell-based, ebola virus; settings: Zaire ebolavirus
in vitro [9] = settings: human
[10] = Cytotoxicity in BCBL-1 cells; format: cell-based; settings: human, cell line BCBL-1 (HHV-8 row)
Method: Cell viability in all assays with lymphocytes was assessed with the CellTiter-Glo Luminescent Cell Viability Assay (Promega). Briefly, assay plates were incubated at ambient temperature for 30 min then 50 µl of CellTiter-Glo reagent was added to each well and the plates were mixed for 2 min on an orbital shaker to lyse the cells. Plates were then incubated for an additional 10 min at ambient temperature and the luminescence was quantified on a luminometer. Standard methods were used to calculate drug concentrations that inhibited the proliferation of Akata, HSB-2, BCLB-1, or Molt-3 cells by 50% (CC50).

HHV-8 = HHV-8 antiviral activity in BCBL-1 cells; format: cell-based, human herpes virus 8 (HHV-8); settings: Homo sapiens, BCBL1; Virus HHV-8, cell line BCBL-1
[11] = Cytotoxicity in MEF cells; format: cell-based; settings: mouse, cell line MEF (MCMV row)
[12] = tested on: human foreskin fibroblast cells; test: Neutral red cytotoxicity assay in human foreskin fibroblast cells; settings: read-out: VACV CC50, μm, parallel to VACV assay (second printing of Table 4)
Poliovirus 3 = test: microbe, parasite or virus in culture; format: cell-based; settings: Enterovirus C, Vero 76

**Q.** Which results are given for `CC(C)CCCCCCCCCCCCCCOCCCOP(=O)(O)COC(CO)Cn1ccc(=O)[nH]c1=O` (stereo not drawn) [Compound 12]?
**A.** CC50 [1]: 34000 nM; EC50 [2]: > 4 µM; EC50 ([3]; read-out: EC50 μM, Virus GDG^RP53, human foreskin fibroblast cells): ~0.171 µM; EC90 ([3]; read-out: EC90 μM): 1.55 µM; EC50 (HCV): 570 nM; CC50 at 7 days [4]: 50000 nM; EC50 (MCMV): 1600 nM; CC50 [5]: 18000 nM; EC50 (HCMV (Strain AD169); Strain AD169, human foreskin fibroblast cells, read-out: HCMV EC50): 52 nM; EC50 (HCMV (Strain AD169); Virus AD169, human foreskin fibroblast cells (Table 3), read-out: EC50): ~52 nM; EC90 (HCMV (Strain AD169); Human betaherpesvirus 5, Virus AD169, human foreskin fibroblast cells): 150 nM; CC50 (in vitro [6]): 17200 nM; EC50 [7]: > 4 µM; EC50 ([8]; Human betaherpesvirus 5, MRC5, HCMV in MRC-5 cells (Table 7), read-out: CMV EC50): 27 nM; EC50 ([8]; Human betaherpesvirus 5, MRC5, Mean XC50 (Table 9), read-out: HCMV EC50): 17 nM; EC50 ([8]; Human betaherpesvirus 5, Virus HCMV, cell line MRC5 (Table 8), read-out: EC50): 17 nM; EC50 (Ebola): 1000 nM; CC50 (in vitro [9]): > 20 µM; CC50 (in vitro [9]; CC50 (μM)): 36.9 µM; CC50 [10]: > 10000 nM; EC50 (HHV-8): < 80 nM; CC50 [11]: 60000 nM; CC50 [12]: > 10000 nM; EC50 (Poliovirus 3): 3300 nM
